The values that follow come from patent US4183920A, “4-N-Acyl, 2'-N-acyl and 4,2'-N,N'-diacylfortimicin E derivatives” (Abbott Laboratories, priority 1977, dated 1980).

Structures can show the parent of a compound that is named as a salt. Where two headings read alike, the source gives them in different places.

Assay in all cases: In vitro antibiotic activity, 2-fold agar dilution method
Common to all, as to type: cell-based

Assay [1] relates to Bacillus subtilus U. Ill. 10707. How it is done:
(§1) The in vitro antibiotic activity is determined by a 2-fold agar dilution method using 10 ml. per petri plate of Mueller-Hinton agar. The agar is inoculated with one loopful (0.001 ml. loop) of a 1:10 dilution of a 24 hour broth culture of the indicated test organism and incubated at 37° C. for 24 hours. Minimum inhibitory concentrations (MIC) are expressed as mcg/ml.

The next assay deals with Staph aureus Smith. Conditions: Staphylococcus aureus. As to the method: as §1
A further assay relates to Proteus vulgaris JJ. As to the method:
as §1

In a further assay the test system is Strep. faecalis 10541. As to the method:
as §1

A further assay relates to E. coli R3. As to conditions: Escherichia coli. How it is done:
as §1

The subject of a further assay is Sal. typhimurium Ed #9. Conditions: Salmonella enterica. As to the method:
as §1

The test system of another assay is E. coli Juhl. As to conditions: Escherichia coli. As to the method:
as §1

Another assay concerns Pseudo aeruginosa. How it is done: as §1
A further assay relates to Shigella sonnei 9290. As to conditions: Mueller-Hinton agar, 37° C., 24 hours. As to the method:
as §1

In the next assay the test system is Kleb. pneumoniae KY 4262. As to conditions: Klebsiella pneumoniae. As to the method:
as §1

The mark [2] stands for this setting: Bacillus subtilus U. Ill. 10707, Mueller-Hinton agar, 37° C., 24 hours, read-out: MIC.
Where [3] appears, read: Staph aureus Smith, Mueller-Hinton agar, 37° C., 24 hours, read-out: MIC.
Setting [4] is: Proteus vulgaris JJ, Mueller-Hinton agar, 37° C., 24 hours, read-out: MIC.
Setting [5] is: Enterococcus faecalis, Strep. faecalis 10541, Mueller-Hinton agar, 37° C., 24 hours, read-out: MIC.
The mark [6] stands for this setting: E. coli R3, Mueller-Hinton agar, 37° C., 24 hours, read-out: MIC.
The mark [7] stands for this setting: Sal. typhimurium Ed #9, Mueller-Hinton agar, 37° C., 24 hours, read-out: MIC.
[8] abbreviates: E. coli Juhl, Mueller-Hinton agar, 37° C., 24 hours, read-out: MIC.
[9] abbreviates: Pseudo aeruginosa, Mueller-Hinton agar, 37° C., 24 hours, read-out: MIC.
[10] abbreviates: KY4262, Kleb. pneumoniae KY 4262, Mueller-Hinton agar, 37° C., 24 hours, read-out: MIC.

Take `COC1C(O)C(N)C(OC2OC(C(C)N)CCC2N)C(O)C1N(C)C(=O)[C@@H](O)CCN` (stereo partly drawn) [4-N-L-(2-hydroxy-4-amino)butyrylfortimicin E tetrahydrochloride salt]: the MIC in assay [1] (setting [2]) was 12.5 µg/mL; in the assay with Staph aureus Smith (setting [3]), 25 µg/mL; with Proteus vulgaris JJ (setting [4]), over 100 µg/mL; with Strep. faecalis 10541 (setting [5]), over 100 µg/mL; in the assay on E. coli R3 (setting [6]), over 100 µg/mL; with Sal. typhimurium Ed #9 (setting [7]), 100 µg/mL. Also, the MIC in the assay on E. coli Juhl (setting [8]) was 50 µg/mL; in the assay with Pseudo aeruginosa (setting [9]), over 100 µg/mL; with Shigella sonnei 9290, over 100 µg/mL; with Kleb. pneumoniae KY 4262 (setting [10]), 50 µg/mL.
`COC1C(O)C(N)C(OC2OC(C(C)N)CCC2N)C(O)C1N(C)C(=O)CN` (stereo not shown) [4-N-glycylfortimicin E tetrahydrochloride salt]: the MIC is 12.5 µg/mL in assay [1] (Bacillus, U.ILL.10707, 24 h); 6.25 µg/mL in the assay with Staph aureus Smith (24 h); over 100 µg/mL in the assay with Proteus vulgaris JJ (Proteus vulgaris, 24 h); over 100 µg/mL in the assay with Strep. faecalis 10541 (Enterococcus faecalis, 10541, 24 h); over 100 µg/mL in the assay on E. coli R3 (R3, 24 h); 25 µg/mL with Sal. typhimurium Ed #9 (TYPHIMURIUM, 24 h). The MIC is 6.25 µg/mL against E. coli Juhl (24 h); over 100 µg/mL with Pseudo aeruginosa (24 h); 25 µg/mL against Shigella sonnei 9290; 25 µg/mL against Kleb. pneumoniae KY 4262 (KY4262, 24 h).
Turning to `CNCC(=O)N(C)C1C(O)C(OC2OC(C(C)N)CCC2N)C(N)C(O)C1OC` (stereo not shown) [4-N-sarcosylfortimicin E tetrahydrochloride salt], the MIC is 6.25 µg/mL in assay [1] (setting [2]); 25 µg/mL with Staph aureus Smith (setting [3]); over 100 µg/mL in the assay with Proteus vulgaris JJ (setting [4]); over 100 µg/mL in the assay with Strep. faecalis 10541 (setting [5]); over 100 µg/mL in the assay with E. coli R3 (setting [6]); 50 µg/mL in the assay with Sal. typhimurium Ed #9 (setting [7]). For the same molecule, the MIC was 50 µg/mL with E. coli Juhl (setting [8]), over 100 µg/mL in the assay with Pseudo aeruginosa (setting [9]), 100 µg/mL with Shigella sonnei 9290 and 100 µg/mL with Kleb. pneumoniae KY 4262 (setting [10]).
On to `COC1C(O)C(N)C(OC2OC(C(C)N)CCC2N)C(O)C1N(C)C(=O)CCN` (stereo not drawn) [4-N-β-alanylfortimicin E tetrahydrochloride salt], for which the MIC is 12.5 µg/mL in assay [1] (setting [2]); 12.5 µg/mL in the assay on Staph aureus Smith (setting [3]); over 100 µg/mL in the assay on Proteus vulgaris JJ (setting [4]); over 100 µg/mL in the assay with Strep. faecalis 10541 (setting [5]); over 100 µg/mL in the assay on E. coli R3 (setting [6]); 25 µg/mL in the assay with Sal. typhimurium Ed #9 (setting [7]). In addition, the MIC in the assay on E. coli Juhl (setting [8]) was 25 µg/mL; in the assay on Pseudo aeruginosa (setting [9]) it was over 100 µg/mL; against Shigella sonnei 9290, over 100 µg/mL; in the assay with Kleb. pneumoniae KY 4262 (setting [10]), 25 µg/mL.
